# Reference: paper PMC9503608, “An Insight into Symmetrical Cyanine Dyes as Promising Selective Antiproliferative Agents in Caco-2 Colorectal Cancer Cells” (Molecules, 2022)
# Experiments:
# [1] = MTT cell viability assay, Caco-2; format: cell-based, human; settings: human, Caco-2, Caco-2 versus NHDF, 72 h; read-out: SI Caco-2 (selectivity index, cancer versus NHDF)
# Protocol: (§1) Caco-2, MCF-7, PC-3, and NHDF cell lines were obtained from the American Type Culture Collection (ATCC) and maintained in 75 cm^2 culture flasks in a humidified atmosphere at 37 °C with 5% carbon dioxide using a LEEC Culture Safe Precision CO2 Incubator. The culture media was renewed every two to three days. The NHDF cell line was cultured in Roswell Park Memorial Institute (RPMI) medium supplemented with 10% of inactivated fetal bovine serum (FBS), 2 mM of L-glutamine, 10 mM of 4-(2-hydroxyethyl)-1-piperazineethanesulfonic acid (HEPES), 1 mM of sodium pyruvate, and 1% of antibiotic/antimycotic mixture (Ab; 10,000 U/mL of penicillin G, […] of streptomycin, and 25 µg/mL of amphotericin B). The PC-3 cell line was also cultured in RPMI 1640 medium supplemented with 10% inactivated FBS and 1% of an antibiotic mixture (Sp; 10,000 U/mL of penicillin G and […] of streptomycin). The Caco-2 and MCF-7 cell lines were grown in Dulbecco’s Modified Eagle Medium (DMEM). Caco-2 was supplemented with 20% of inactivated FBS and 1% of Sp. On the other hand, the MCF-7 medium was complemented with 10% of inactivated FBS and 1% of Ab. All manipulations were performed in a Labculture Class II A2 Biological Safety Cabinet.
# (§2) After the near confluency of cultures, cells were detached with a solution of 0.125 g/L trypsin and 0.02 g/L ethylenediaminetetracetic acid (EDTA), counted using the trypan blue method, resuspended, and seeded in 96-well culture plates (100 µL, 2 × 10^4 cells/mL). Following 48 h of adherence, cells were treated with the test solutions and incubated for 72 h. This incubation, as well as the solution manipulations, were performed in an environment protected from light. After the incubation, the medium was replaced with a fresh incomplete culture medium (without FBS and Ab or Sp) and MTT solution (5 mg/mL in phosphate buffer saline (PBS)). After additional incubation for 4 h, the MTT medium was removed, formazan crystals were dissolved in DMSO, and the optical density of each well was measured at 570 nm using a microplate spectrophotometer Bio-Rad xMark. Untreated cells were used as a negative control and 5-FU as the positive control. The results were expressed as the relative cell proliferation relative to the negative control cells. […] To determine the IC50 values, Caco-2, MCF-7, PC-3, and NHDF cells were exposed to increasing concentrations between 0.001 and 100 μM.
# [2] = system: Caco-2 colorectal adenocarcinoma cell line; experiment: MTT cell viability assay, Caco-2; format: cell-based, human; settings: Homo sapiens, Caco-2, 72 h
# Protocol: as §1, §2
# [3] = Photostability evaluation in PBS (absorbance decay at 376 nm); format: physicochemical; settings: 10 µM in PBS
# Protocol: The photostability of the dye 12 was evaluated using a concentration of 10 µM prepared from the dilution of 10 mM DMSO stock solution in PBS. In a 96-well plate, 100 µL of dye solution was added, irradiated in the same way as that previously described for photocytotoxicity evaluation for 120 min, and spectrophotometric readings were taken over this period at the dye 12’s maximum absorption wavelength (376 nm). Two independent experiments were performed in quadruplicate. The absorbance was normalised to simplify the analysis.
# Caco-2 cells [4] = experiment: Apoptosis by propidium iodide staining and flow cytometry; format: cell-based, human
# Protocol: The apoptosis occurrence and influence of the dye 12 on the cell cycle were evaluated using propidium iodide (PI) staining and flow cytometry, as described by Riccardi and Nicolleti. After the near confluency of the culture, trypsinisation, and counting, Caco-2 cells were seeded (2 mL, 3 × 10^4 cells/mL) in 6-well plates. After 48 h of adherence, the cells were treated with the test solutions (3 mL and 5 mL for negative control) and incubated for 72 h. Untreated cells were used as the negative control, and sorbitol and 5-FU [56] were used as positive controls for the apoptosis and cell cycle distribution studies, respectively. After incubation, the supernatant was collected and the cells were washed with PBS and combined with the cells harvested using the trypsin treatment. This cell suspension was maintained on ice and centrifugated, and then the pellet was resuspended in 0.5 mL of PBS. The cells were fixed by adding 4.5 mL of 70% ethanol cooled at −20 °C and were stored at the same temperature. For the cytometry analysis, PBS was added to the fixed cells before centrifugation, and then the ethanolic supernatant was removed. The pellet was resuspended in 0.5 mL of PBS and 0.5 mL of DNA extraction (192 mL of 0.2 M sodium phosphate and 8 mL of […], pH 7.8) was added. After incubation for 5 min, the cells were centrifuged, the supernatant was removed, and the pellet resuspended in 0.3 mL of staining solution (20 µg/mL of PI and 0.2 mg/mL of DNase-free RNase in PBS). Using a FACSCalibur flow cytometer and the 488 nm laser line, a minimum of 20,000 events were recorded. Acquisition and apoptosis analysis was performed using BD CellQuestTM Pro 4.0.2 Software. Cell cycle analysis was performed with ModFit LT 5.0.9 software. To exclude debris and necrotic cells, events with a lower diameter (forward scatter; FCS) and reduced PI fluorescence (FL3) than the hypodiploid apoptotic cells were eliminated. Two independent experiments were performed.
# Caco-2 cells [5] = experiment: Morphological analysis by inverted microscopy; format: cell-based, human; settings: 72 h, 20 or 40× magnification, versus untreated cells
# Protocol: After the near confluency of the culture, trypsinisation, and counting, Caco-2 cells were seeded (3 mL; 3 × 10^4 cells/mL) in 35 mm cell culture dishes with treatment for the tissue culture. Following 48 h of adherence, the cells were treated with the test solutions and incubated for 72 h in an environment protected from light. At every 24 h, cellular morphology was verified in an Olympus CKX41 SF inverted microscope with a 10, 20, or 40× objective, and the analysis was based on comparing the cells with and without treatment. Cell imaging was captured using a DC6V Olympus digital camera coupled to the microscope.
compound,measurement,setting,value
"CN1C(=Cc2oc3ccccc3[n+]2C)Oc2ccccc21.Cc1ccc(S(=O)(=O)[O-])cc1 [Dye 12, 3-Methyl-2-((3-methylbenzo[d]oxazol-2(3H)-ylidene)methyl)benzo[d]oxazol-3-ium 4-methylbenzenesulfonate]",selectivity ratio at 72 h,[1],20.9
same,IC50,"[2]; 72 h of incubation, MTT, protected from light",670 nM
same,viability at 10 µM,"[2]; single concentration of 10 µM, 72 h, mean ± SD, read-out: cell viability percentage in relation with control, Caco-2",10 ± 0.93%
same,decomposition (decrease in absorbance at 376 nm),[3]; after 30 min of irradiation,approximately 4%
same,decomposition (decrease in absorbance at 376 nm),[3]; after 120 min of irradiation,~5%
same,increase in apoptotic cells relative to untreated cells,"Caco-2 cells [4]; Caco-2, 10 µM, 72 h",2%
same,apoptosis induced (percent of cells),"Caco-2 cells [4]; Caco-2, dye 12 10 µM 72 h, sorbitol 600 mM 24 h",about 3%
same,morphological changes of Caco-2 cells,Caco-2 cells [5]; 1 µM,no visible differences
same,morphological changes of Caco-2 cells,Caco-2 cells [5]; 10 µM,evident contraction
